Laboratory results published in publication PMC6985722 (Antimicrobial Agents and Chemotherapy, 2020).
Where “and” joins values, the source holds several entries; their conditions need not be identical. Identical values can stand only once.

Experiment: RSV human challenge study: safety (adverse events, clinical and laboratory tests, ECG)
Type: in vivo
Conditions: for TEAE Abdominal discomfort / TEAE Abdominal distention / TEAE Abdominal pain (Table 4) / TEAE Abdominal pain (Table S4, listed apart from Abdominal pain lower) / TEAE Abdominal pain lower / TEAE Blood and lymphatic system disorders / TEAE Cardiac disorders / TEAE Catheter site erythema / TEAE Catheter site paraesthesia / TEAE Decreased appetite / TEAE Diarrhea / TEAE Dizziness / TEAE Epistaxis / TEAE Eye disorders / TEAE Eye pain / TEAE Food poisoning / TEAE Gastroenteritis / TEAE Gastrointestinal disorders / TEAE General disorders and administration site conditions / TEAE Headache / TEAE Hypoaesthesia / TEAE Infections and infestations / TEAE Injury, poisoning and procedural complications / TEAE Joint injury / TEAE Lip dry / TEAE Lymphadenopathy / TEAE Metabolism and nutrition disorders / TEAE Musculoskeletal and connective tissue disorders / TEAE Musculoskeletal pain / TEAE Myalgia / TEAE Myocarditis / TEAE Nausea / TEAE Nervous system disorders / TEAE Ocular hyperemia / TEAE Oropharyngeal pain / TEAE Pain in jaw / TEAE Pyrexia / TEAE Rash / TEAE Respiratory, thoracic and mediastinal disorders / TEAE Rhinitis / TEAE Skin abrasion / TEAE Skin and subcutaneous tissue disorders / TEAE Tension headache / TEAE Total / TEAE URTI / TEAE Vessel puncture site erythema / TEAE Viral URTI / TEAE Vomiting: safety analysis set
Excerpt: Twice-daily collection of nasal wash samples allowed measurement of viral load via RT-qPCR and quantitative culture. RT-qPCR results were reported as PFUe/ml when the standard curve included in each assay contained a known infectious amount (PFU) of RSV, as described previously ([30]). Subjects reported the occurrence and severity of symptoms three times daily using a 10-item subject symptom diary card as previously reported ([12]) (see Supplemental Methods). Throughout the quarantine period, used tissues were collected and weighed daily, and total nasal mucus weight was recorded. PK assessments were based on venous blood samples. Safety assessments included measurement of vital signs, standard 12-lead ECG recordings, spirometry, a complete physical examination, and a respiratory-directed physical examination. AEs were monitored daily, coded according to the Medical Dictionary for Regulatory Activities Version 20.0, and graded according to the National Cancer Institute Common Terminology Criteria for Adverse Events Version 4.0 (see Supplemental Methods for further details).
The primary efficacy analysis population (the ITT-I analysis set) comprised all randomized subjects who received challenge virus and at least one dose of study drug and met the criterion for laboratory-confirmed RSV infection (presence of detectable RSV). Sensitivity analyses were based on a subset of the ITT-I population who had first detectable RSV infection prior to study drug administration (the ITT-A analysis set) and a fixed time period of 6.5 days (comprising data for all subjects for 6.5 days of evaluation after the first dose, regardless of the staggered commencement of dosing). The safety analysis set comprised all subjects who received challenge virus; the PK analysis set comprised all subjects who received the challenge virus and provided at least one postdose PK result. […]
unexpected, in the opinion of the investigator, were captured as AEs. Following the viral challenge, upper and lower respiratory tract symptoms identified by the directed physical examination were expected, presumed to represent virus infection consequent to viral challenge and not captured as an AE unless they met the criteria for an AE and were deemed clinically significant in the opinion of the investigator. AEs were monitored daily from screening (day –2) through to the follow -up visit (day 28) and coded to system organ class and preferred term according to the Medical Dictionary for Regulatory Activities Version
20.0. AEs were graded according to the National Cancer Institute Common Terminology Criteria for Adverse Events Version 4.0, andthe relationship to the investigational medical product or to challenge virus was recorded. An AE with an onset date/time after […]
that were considered by the investigator to be causally related to challenge virus can be included in the analysis of AEs.
Outcomes. Safety outcomes included the occurrence of AEs. PK outcomes included the maximum plasma concentration, the minimum plasma concentration, the time to maximum plasma concentration, and the area under the plasma concentration-time curve with a dosing interval, calculated by the linear trapezoidal rule.

NCc1ccc2c(c1)nc(CN1C(=O)C3(CC3)c3ccc(F)cc31)n2CCCC(F)(F)F [RV521]
Grade 2 TEAEs, number of events (200 mg): 2 | Subjects with gastrointestinal TEAEs (200 mg): 32% | Subjects with grade 2 TEAEs (200 mg): 2 subjects | Treatment-emergent AEs, number of events (200 mg): 19 | Clinical or laboratory tests (vital signs, liver enzymes) vs placebo (200 mg and 350 mg): No notable differences | ECG findings (200 mg and 350 mg): no clinically significant ECG findings | TEAEs of grade ≥3 (200 mg and 350 mg): no TEAEs of grade ≥3 | TEAE Abdominal discomfort (200 mg): 0 number of subjects (%) | TEAE Abdominal distention (200 mg): 0 number of subjects (%) | TEAE Abdominal pain (Table 4) (200 mg): 2 (9) No. of subjects (%) | TEAE Abdominal pain (Table S4, listed apart from Abdominal pain lower) (200 mg): 2 (9) number of subjects (%) | TEAE Abdominal pain lower (200 mg): 0 number of subjects (%) | TEAE Blood and lymphatic system disorders (200 mg): 0 number of subjects (%) | TEAE Cardiac disorders (200 mg): 0 number of subjects (%) | TEAE Catheter site erythema (200 mg): 0 number of subjects (%) | TEAE Catheter site paraesthesia (200 mg): 1 (5) number of subjects (%) | TEAE Decreased appetite (200 mg): 1 (5) number of subjects (%) | TEAE Diarrhea (200 mg): 3 (14) No. of subjects (%) | TEAE Dizziness (200 mg): 1 (5) number of subjects (%) | TEAE Epistaxis (200 mg): 1 (5) number of subjects (%) | TEAE Eye disorders (200 mg): 0 number of subjects (%) | TEAE Eye pain (200 mg): 0 number of subjects (%) | TEAE Food poisoning (200 mg): 1 (5) number of subjects (%) | TEAE Gastroenteritis (200 mg): 0 number of subjects (%) | TEAE Gastrointestinal disorders (200 mg): 7 (32) number of subjects (%) | TEAE General disorders and administration site conditions (200 mg): 1 (5) number of subjects (%) | TEAE Headache (200 mg): 0 No. of subjects (%) | TEAE Hypoaesthesia (200 mg): 1 (5) number of subjects (%) | TEAE Infections and infestations (200 mg): 3 (14) number of subjects (%) | TEAE Injury, poisoning and procedural complications (200 mg): 1 (5) number of subjects (%) | TEAE Joint injury (200 mg): 0 number of subjects (%) | TEAE Lip dry (200 mg): 0 number of subjects (%) | TEAE Lymphadenopathy (200 mg): 0 number of subjects (%) | TEAE Metabolism and nutrition disorders (200 mg): 1 (5) number of subjects (%) | TEAE Musculoskeletal and connective tissue disorders (200 mg): 0 number of subjects (%) | TEAE Musculoskeletal pain (200 mg): 0 number of subjects (%) | TEAE Myalgia (200 mg): 0 number of subjects (%) | TEAE Myocarditis (200 mg): 0 number of subjects (%) | TEAE Nausea (200 mg): 2 (9) No. of subjects (%) | TEAE Nervous system disorders (200 mg): 2 (9) number of subjects (%) | TEAE Ocular hyperemia (200 mg): 0 number of subjects (%) | TEAE Oropharyngeal pain (200 mg): 0 number of subjects (%) | TEAE Pain in jaw (200 mg): 0 number of subjects (%) | TEAE Pyrexia (200 mg): 0 number of subjects (%) | TEAE Rash (200 mg): 0 No. of subjects (%) | TEAE Respiratory, thoracic and mediastinal disorders (200 mg): 1 (5) number of subjects (%) | TEAE Rhinitis (200 mg): 1 (5) No. of subjects (%) | TEAE Skin abrasion (200 mg): 1 (5) number of subjects (%) | TEAE Skin and subcutaneous tissue disorders (200 mg): 1 (5) number of subjects (%) | TEAE Tension headache (200 mg): 0 number of subjects (%) | TEAE Total (200 mg): 11 (50) number of subjects (%) and 11 number of subjects (%) | TEAE URTI (200 mg): 2 (9) No. of subjects (%) | TEAE Vessel puncture site erythema (200 mg): 0 number of subjects (%) | TEAE Viral URTI (200 mg): 0 No. of subjects (%) | TEAE Vomiting (200 mg): 1 (5) No. of subjects (%) | Grade 2 TEAEs, number of events (350 mg): 4 | Subjects with gastrointestinal TEAEs (350 mg): 59% | Subjects with grade 2 TEAEs (350 mg): 3 subjects | TEAE Abdominal discomfort (350 mg): 1 (5) number of subjects (%) | TEAE Abdominal distention (350 mg): 1 (5) number of subjects (%) | TEAE Abdominal pain (Table 4) (350 mg): 5 (23) No. of subjects (%) | TEAE Abdominal pain (Table S4, listed apart from Abdominal pain lower) (350 mg): 4 (18) number of subjects (%) | TEAE Abdominal pain lower (350 mg): 1 (5) number of subjects (%) | TEAE Blood and lymphatic system disorders (350 mg): 0 number of subjects (%) | TEAE Cardiac disorders (350 mg): 0 number of subjects (%) | TEAE Catheter site erythema (350 mg): 1 (5) number of subjects (%) | TEAE Catheter site paraesthesia (350 mg): 0 number of subjects (%) | TEAE Decreased appetite (350 mg): 0 number of subjects (%) | TEAE Diarrhea (350 mg): 9 (41) No. of subjects (%) | TEAE Dizziness (350 mg): 1 (5) number of subjects (%) | TEAE Epistaxis (350 mg): 0 number of subjects (%) | TEAE Eye disorders (350 mg): 0 number of subjects (%) | TEAE Eye pain (350 mg): 0 number of subjects (%) | TEAE Food poisoning (350 mg): 0 number of subjects (%) | TEAE Gastroenteritis (350 mg): 1 (5) number of subjects (%) | TEAE Gastrointestinal disorders (350 mg): 13 (59) number of subjects (%) | TEAE General disorders and administration site conditions (350 mg): 1 (5) number of subjects (%) | TEAE Headache (350 mg): 0 No. of subjects (%) | TEAE Hypoaesthesia (350 mg): 0 number of subjects (%) | TEAE Infections and infestations (350 mg): 5 (23) number of subjects (%) | TEAE Injury, poisoning and procedural complications (350 mg): 0 number of subjects (%) | TEAE Joint injury (350 mg): 0 number of subjects (%) | TEAE Lip dry (350 mg): 1 (5) number of subjects (%) | TEAE Lymphadenopathy (350 mg): 0 number of subjects (%) | TEAE Metabolism and nutrition disorders (350 mg): 0 number of subjects (%) | TEAE Musculoskeletal and connective tissue disorders (350 mg): 1 (5) number of subjects (%) | TEAE Musculoskeletal pain (350 mg): 0 number of subjects (%) | TEAE Myalgia (350 mg): 1 (5) number of subjects (%) | TEAE Myocarditis (350 mg): 0 number of subjects (%) | TEAE Nausea (350 mg): 12 (55) No. of subjects (%) | TEAE Nervous system disorders (350 mg): 1 (5) number of subjects (%) | TEAE Ocular hyperemia (350 mg): 0 number of subjects (%) | TEAE Oropharyngeal pain (350 mg): 0 number of subjects (%) | TEAE Pain in jaw (350 mg): 0 number of subjects (%) | TEAE Pyrexia (350 mg): 0 number of subjects (%) | TEAE Rash (350 mg): 0 No. of subjects (%) | TEAE Respiratory, thoracic and mediastinal disorders (350 mg): 0 number of subjects (%) | TEAE Rhinitis (350 mg): 2 (9) No. of subjects (%) | TEAE Skin abrasion (350 mg): 0 number of subjects (%) | TEAE Skin and subcutaneous tissue disorders (350 mg): 1 (5) number of subjects (%) | TEAE Tension headache (350 mg): 0 number of subjects (%) | TEAE Total (350 mg): 16 (73) number of subjects (%) | TEAE URTI (350 mg): 0 No. of subjects (%) | TEAE Vessel puncture site erythema (350 mg): 0 number of subjects (%) | TEAE Viral URTI (350 mg): 2 (9) No. of subjects (%) | TEAE Vomiting (350 mg): 2 (9) No. of subjects (%) | Treatment-related SAEs, deaths, or discontinuations due to AEs (any treatment group): No treatment-related serious adverse events (SAEs), deaths, or discontinuations due to AEs
